# Laboratory results reported in patent publication US6423702B1, “PROCESS FOR THE HYDROXYLATION OF AN ACYCLIC OR CYCLIC METHYLENE RADICAL IN THE ALLYLIC POSITION, PHARMACEUTICAL COMPOSITION CONTAINING HYDROXYCHOLESTEROL DERIVATIVES AND UTILIZATION OF SUCH COMPOSITIONS FOR THE PREPARATION OF DRUGS” (priority 1991, dated 2002).
# How the values were obtained:
# [1] = tested on: glioblastomas in the rat cortex (C6 cells); assay: Glioblastomas induced in the brain with C6 cells, liposome treatment at the tumor site; format: in vivo
# Description: The “in vivo” model proposed by Galli et al., (J. Neurooncology, 7, 299-304, 1989) has been adopted with a few modifications in the number of C6-type cells injected and in the age of the rats. Rats (Wistar male) aged 6 days are anesthetized and placed in a stereotaxic apparatus, the skin of the cranium is opened and the skull pierced at appropriate coordinates (4.5 AP, 3.0 ML, 2.0 mm DV with respect to the lambda, set 0) using a dental drill; 200×10^3 C6 in […] of PBS are then injected over 4 minutes and then the skin sutured. 72 hours later, the rats are operated on again and treated with liposomes containing the 7β-hydroxycholesteryl 3-esters. […]
# The rats are sacrificed 8 days after the treatment by […] injection of pentobarbital, perfused with formalin (4%) and the withdrawn brain is post-fixed in formalin (4%) and then in isobutanol and included in paraffin. Sections with a thickness of 10 μm are prepared using a section cutter and, after removing paraffin in toluene, the glioblastomas are detected by staining with Cresyl Violet (0.1% in 0.1 M […] and 0.1 M sodium acetate) and subjected to an image analyzer (IBAS, KONTRON, SAMBA ALCATEL). […]
# Quantitative analysis of the lesions thus observed requires the acquisition of images with sequences of echoes of spin having several echoes and recovery times. […]
# [2] = tested on: secondary reactional gliosis (reactive astrocytes); assay: Reactional gliosis after complete section of the spinal cord at T8, GFAP detection; format: in vivo, rat; conditions: rats 250 g; 5 μl liposomes with 500 μg PC and 50 μg ester injected 0.5 mm downstream of the section
# Description: (§1) PC and steroidal derivatives are dissolved in CHCL3/methanol [sic] (2/1 v/v), the solvent evaporated and 1 ml of KCL [sic] (0.15 M) added. The suspension is subjected to ultrasound in an ice bath (5×1 min with an interval of 30 sec, amplitude 18 μm), centrifuged 13,000 g for 20 min, the supernatant withdrawn and concentrated 5 times under nitrogen. BRAIN
# After complete section of the spinal cord at the T8 level in rats weighing 250 g (Sprague, Dawley, EFFA, Credo), 5 μl of a suspension of liposomes containing 500 μg of PC and 50 μg of esters of 7β-OH-CH (C18:0 or C18:1) are injected at 0.5 mm downstream of the section.
# (§2) GFAP, specific structural labeler of astrocytes, is detected on paraffin sections by the antibody/antiantibody system to GFAP coupled to the peroxidase.
# [3] = tested on: reactional gliosis (reactive astrocytes); assay: Reactional gliosis after electrolytic lesion of the striatum (brain), GFAP detection; format: in vivo, rat; conditions: rats aged 6 days; 2 μl liposomes with 20 μg PC and 2 μg sterol or oxysterol injected into the site of lesion
# Description: as §1
# Rats aged 6 days are anesthetized with an intraperitoneal injection of imalgene 500 (2 mg/10 g) and valium (0.05 ml/10 g) and then placed in a stereotaxic apparatus in order to be subjected to an electrolytic lesion at the level of the striatum. For this, a dental probe, insulated except at the point, is moved down to the level of the striatum according to the stereotaxic coordinates with respect to the lambda. At this level, a current of 2 mA is applied for 10 secs;
# 2 μl of a suspension of liposomes containing 20 μg of PC and 2 μg of various sterols or oxysterols are injected into the site of lesion.
# as §2
# [4] = tested on: subcutaneous glioblastomas (C6 cells); assay: Subcutaneous tumors induced by inoculating with C6 cells, intratumoral liposome treatment; format: in vivo, rat; conditions: 50 μl liposomes with 1 mg PC and 100 μg steroid injected into the tumors; photographed 48 hours afterwards
# Description: The C6 cells (passage 55-57) are injected subcutaneously at the shoulders at a charge of 10^6 cells/200 μl of […] in rats (26 g) aged 3 weeks according to Ledig et al., (Revue de l'Alcoolisme, 1986, 31, 1-11); when the tumors develop (2 weeks after inoculating with the C6 cells), 50 μl of a suspension of liposomes containing 1 mg of PC and 100 μg of cholesteryl oleate or 7β-OH-cholesteryl oleate are injected into the tumors. The animals are photographed 48 hours afterwards.
# [5] = tested on: ascitic tumors, Krebs-II transplantable carcinoma; conditions: injected intraperitoneally into mice carrying ascitic tumors; cited from earlier work
# [6] = tested on: rat fibroblasts originating from the heart; conditions: cited from earlier work
# [7] = tested on: cultured heart cells from newborn rats; conditions: cited from earlier work
# [8] = tested on: rat liver epithelial cells; conditions: cited from earlier work
# [9] = tested on: hepatocytes from newborn rats; conditions: cited from earlier work
# [10] = tested on: lymphoma (mouse RDM4 and YAC-1); conditions: mouse RDM4 and YAC-1 lymphoma; cited from earlier work
# [11] = tested on: HTC cells (rat liver tumoral cells); conditions: cited from earlier work
# transformed astrocytes = conditions: cited from earlier work
# [12] = tested on: tumors induced by 7,12-di-methylbenz(α)anthracene; conditions: female Sprague-Dawley rats; cited from earlier work
smiles,measurement,setting,value
"CCCCCCCC/C=C\CCCCCCCC(=O)O[C@H]1CC[C@@]2(C)C(=C[C@H](O)[C@H]3[C@@H]4CC[C@H]([C@H](C)CCCC(C)C)[C@@]4(C)CC[C@@H]32)C1 [7β-OH-CH (C18:1), 7β-hydroxycholesteryl 3-oleate]",size of the tumors (Cresyl Violet staining),"[1]; 40 μg in PC/GM1 liposomes injected 72 hours after C6 inoculation, sacrifice 8 days after treatment",significant reduction
same,monitoring of the tumor over time by NMR imagery,"[1]; same glioblastoma induced in the cortex of a rat, during treatment",regression
same,secondary reactional gliosis at the spinal cord lesion site,[2],reduces
same,reactional gliosis in the CNS,[3],high attenuation
same,effect on the subcutaneous tumor,[4],significant regression
"CC(C)CCC[C@@H](C)[C@H]1CC[C@H]2[C@@H]3[C@@H](OC(=O)CCC(=O)O)C=C4C[C@@H](OC(=O)CCC(=O)O)CC[C@]4(C)[C@H]3CC[C@]12C [7β-hydroxycholesterol 3,7-bis(hemisuccinate)]",antitumoral activity,[5],antitumoral activity
CC(C)CCC[C@@H](C)[C@H]1CC[C@H]2[C@@H]3[C@@H](O)C=C4C[C@@H](O)CC[C@]4(C)[C@H]3CC[C@]12C [7β-hydroxycholesterol],cytotoxic activity against cultured cells,[6],cytotoxic activity
same,effect on cells with weaker potential for division,[7],not detrimentally affected
same,cytotoxic activity against cultured cells,[8],cytotoxic activity
same,effect on cells with weaker potential for division,[9],not detrimentally affected
same,cytotoxic activity against cultured cells,[10],cytotoxic activity
same,cytotoxic activity against cultured cells,[11],cytotoxic activity
same,metabolism to esters of fatty acids,transformed astrocytes,metabolized
"CC(C)CC[C@@H](O)[C@@H](C)[C@H]1CC[C@H]2[C@@H]3[C@@H](O)C=C4C[C@@H](O)CC[C@]4(C)[C@H]3CC[C@]12C [(22 R)-cholest-5-ene-3β,7β22-triol]",development of tumors,[12],effectively reduced
"CCCCCCCCCCCCCCCC(=O)O[C@H]1CC[C@@]2(C)C(=CC[C@H]3[C@@H]4CC[C@H]([C@H](C)CCCC(C)C)[C@@]4(C)CC[C@@H]32)C1 [CH (C16:0), cholesteryl palmitate]",reactional gliosis in the CNS,[3],ineffective
"CCCCCCCC/C=C\CCCCCCCC(=O)O[C@H]1CC[C@@]2(C)C(=CC[C@H]3[C@@H]4CC[C@H]([C@H](C)CCCC(C)C)[C@@]4(C)CC[C@@H]32)C1 [CH (C18:1), cholesteryl oleate]",effect on the subcutaneous tumor,[4],practically no effect
"CC(C)CCC[C@@H](C)[C@H]1CC[C@H]2[C@@H]3CC=C4C[C@@H](O)CC[C@]4(C)[C@H]3CC[C@]12C [CH, cholesterol]",reactional gliosis in the CNS,[3],ineffective
